Source: ChEMBL document CHEMBL5634117 (Eur J Med Chem, 2023)
Each block holds one compound with its values, some of them ahead of it. The source made the active and inactive calls. The rule behind the calls is not given here.

How the values were obtained:
[1] = target: T1, Mitogen-activated protein kinase 8 (Homo sapiens, UniProt P45983); test: Inhibition of human JNK1 at 10 uM in presence of ATP relative to control
[2] = target: T2, Mitogen-activated protein kinase 10 (Homo sapiens, UniProt P53779); test: Inhibition of human JNK3 at 10 uM in presence of ATP relative to control
T2 sequence (P53779 whole entry): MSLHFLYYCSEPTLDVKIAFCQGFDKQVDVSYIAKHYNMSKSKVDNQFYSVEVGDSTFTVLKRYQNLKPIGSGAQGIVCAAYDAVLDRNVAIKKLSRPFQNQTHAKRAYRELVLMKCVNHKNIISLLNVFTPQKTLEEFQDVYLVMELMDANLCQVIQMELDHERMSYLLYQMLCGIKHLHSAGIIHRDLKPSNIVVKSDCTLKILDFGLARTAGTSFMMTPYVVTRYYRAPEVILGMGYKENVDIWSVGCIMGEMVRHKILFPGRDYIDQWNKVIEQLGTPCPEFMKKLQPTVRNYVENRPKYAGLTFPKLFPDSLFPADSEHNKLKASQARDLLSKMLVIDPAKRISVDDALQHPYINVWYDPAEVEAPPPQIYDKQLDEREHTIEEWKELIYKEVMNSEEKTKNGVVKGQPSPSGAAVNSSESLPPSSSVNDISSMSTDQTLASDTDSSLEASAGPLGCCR

[3] = target: T3, Mitogen-activated protein kinase 9 (Homo sapiens, UniProt P45984); test: Inhibition of human JNK2 at 10 uM in presence of ATP relative to control
Target sequence in this assay (P45984 whole entry, looked up): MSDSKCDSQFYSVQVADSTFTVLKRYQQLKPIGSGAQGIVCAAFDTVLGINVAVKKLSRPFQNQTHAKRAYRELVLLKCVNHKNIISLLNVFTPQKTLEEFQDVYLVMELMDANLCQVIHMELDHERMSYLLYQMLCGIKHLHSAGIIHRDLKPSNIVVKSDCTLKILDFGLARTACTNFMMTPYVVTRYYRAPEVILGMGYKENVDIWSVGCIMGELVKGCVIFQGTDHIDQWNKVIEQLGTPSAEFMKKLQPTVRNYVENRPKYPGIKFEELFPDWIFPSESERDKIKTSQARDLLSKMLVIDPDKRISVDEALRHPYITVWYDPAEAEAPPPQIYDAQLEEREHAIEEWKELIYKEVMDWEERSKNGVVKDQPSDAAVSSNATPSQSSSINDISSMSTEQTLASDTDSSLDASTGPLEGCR

[4] = target: T1, Mitogen-activated protein kinase 8; test: Inhibition of human JNK1 in presence of ATP
[5] = target: T3, Mitogen-activated protein kinase 9; test: Inhibition of human JNK2 in presence of ATP
Target sequence in this assay (P45984 whole entry): as the sequence (P45984 whole entry, looked up) above

[6] = target: T2, Mitogen-activated protein kinase 10; test: Inhibition of human JNK3 in presence of ATP
[7] = target: Voltage-gated inwardly rectifying potassium channel KCNH2 (Homo sapiens, UniProt Q12809); test: Inhibition of human ERG; assay type: toxicity
Voltage-gated inwardly rectifying potassium channel KCNH2, sequence (Q12809 whole entry): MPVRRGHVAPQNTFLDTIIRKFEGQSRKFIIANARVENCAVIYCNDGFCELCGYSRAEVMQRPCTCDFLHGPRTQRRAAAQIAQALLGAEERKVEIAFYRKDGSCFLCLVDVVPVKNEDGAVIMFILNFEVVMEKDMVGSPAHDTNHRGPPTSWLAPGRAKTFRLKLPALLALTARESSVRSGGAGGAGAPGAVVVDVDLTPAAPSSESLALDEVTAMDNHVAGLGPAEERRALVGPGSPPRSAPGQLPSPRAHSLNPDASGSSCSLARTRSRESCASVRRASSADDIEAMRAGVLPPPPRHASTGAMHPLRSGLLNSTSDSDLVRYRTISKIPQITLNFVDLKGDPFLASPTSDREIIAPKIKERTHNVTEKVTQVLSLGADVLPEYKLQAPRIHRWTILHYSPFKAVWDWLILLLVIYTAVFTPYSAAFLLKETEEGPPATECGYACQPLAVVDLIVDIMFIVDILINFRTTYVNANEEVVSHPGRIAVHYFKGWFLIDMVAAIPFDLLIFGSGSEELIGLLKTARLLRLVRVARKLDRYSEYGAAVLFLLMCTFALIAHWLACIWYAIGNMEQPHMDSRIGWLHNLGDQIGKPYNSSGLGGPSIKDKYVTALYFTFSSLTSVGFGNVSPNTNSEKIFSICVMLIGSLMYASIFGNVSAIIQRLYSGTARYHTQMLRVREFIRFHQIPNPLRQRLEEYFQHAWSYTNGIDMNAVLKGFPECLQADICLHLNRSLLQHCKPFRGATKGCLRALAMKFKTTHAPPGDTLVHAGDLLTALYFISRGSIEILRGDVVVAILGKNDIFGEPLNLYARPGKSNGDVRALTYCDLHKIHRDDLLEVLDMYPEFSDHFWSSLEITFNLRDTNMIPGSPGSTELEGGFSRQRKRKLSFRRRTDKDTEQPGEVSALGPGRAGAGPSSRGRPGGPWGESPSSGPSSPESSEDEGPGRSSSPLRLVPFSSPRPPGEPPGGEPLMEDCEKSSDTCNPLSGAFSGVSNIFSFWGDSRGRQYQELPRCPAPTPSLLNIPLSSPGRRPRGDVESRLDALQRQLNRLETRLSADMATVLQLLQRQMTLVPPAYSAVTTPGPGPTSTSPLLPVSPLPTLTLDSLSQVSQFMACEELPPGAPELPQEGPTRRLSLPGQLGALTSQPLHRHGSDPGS

Cytochrome P450 3A4 = Cytochrome P450 3A4 (Homo sapiens, UniProt P08684); test: Inhibition of CYP3A4 (unknown origin) using vivid BOMCC as substrate; assay type: ADME
Cytochrome P450 3A4, sequence (P08684 whole entry): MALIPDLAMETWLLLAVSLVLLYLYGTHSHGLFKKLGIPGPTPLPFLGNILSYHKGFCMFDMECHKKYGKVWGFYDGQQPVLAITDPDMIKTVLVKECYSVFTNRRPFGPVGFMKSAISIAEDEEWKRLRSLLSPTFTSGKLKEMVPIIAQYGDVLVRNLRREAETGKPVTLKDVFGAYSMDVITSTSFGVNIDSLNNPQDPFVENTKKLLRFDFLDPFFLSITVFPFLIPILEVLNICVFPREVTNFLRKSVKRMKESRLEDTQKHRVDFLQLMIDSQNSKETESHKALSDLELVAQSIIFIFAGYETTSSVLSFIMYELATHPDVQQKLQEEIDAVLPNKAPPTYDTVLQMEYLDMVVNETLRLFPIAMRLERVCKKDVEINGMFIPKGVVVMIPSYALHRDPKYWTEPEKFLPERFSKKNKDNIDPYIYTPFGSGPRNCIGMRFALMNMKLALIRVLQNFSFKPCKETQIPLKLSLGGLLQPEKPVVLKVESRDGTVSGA

K562 [8] = test: Induction of autophagy in human K562 cells assessed as increase in beclin-1 level at 2.5 to 5 uM measured after 24 hrs by Western blotting analysis; assay type: functional, cell-based; settings: dose 2.5-5 µM
K562 [9] = test: Induction of cell cycle arrest in human K562 cells assessed as accumulation of cells at G2/M phase at 2.5 uM measured after 24 hrs by PI staining based flow cytometry analysis (reference value: 25.62%); assay type: functional
K562 [10] = test: Induction of cell cycle arrest in human K562 cells assessed as accumulation of cells at S phase at 1.25 uM measured after 24 hrs by PI staining based flow cytometry analysis (reference value: 24.75%); assay type: functional
Cytochrome P450 2D6 = Cytochrome P450 2D6 (Homo sapiens, UniProt P10635); test: Inhibition of CYP2D6 (unknown origin) using vivid EOMCC as substrate; assay type: ADME
Cytochrome P450 2D6, sequence (P10635 whole entry): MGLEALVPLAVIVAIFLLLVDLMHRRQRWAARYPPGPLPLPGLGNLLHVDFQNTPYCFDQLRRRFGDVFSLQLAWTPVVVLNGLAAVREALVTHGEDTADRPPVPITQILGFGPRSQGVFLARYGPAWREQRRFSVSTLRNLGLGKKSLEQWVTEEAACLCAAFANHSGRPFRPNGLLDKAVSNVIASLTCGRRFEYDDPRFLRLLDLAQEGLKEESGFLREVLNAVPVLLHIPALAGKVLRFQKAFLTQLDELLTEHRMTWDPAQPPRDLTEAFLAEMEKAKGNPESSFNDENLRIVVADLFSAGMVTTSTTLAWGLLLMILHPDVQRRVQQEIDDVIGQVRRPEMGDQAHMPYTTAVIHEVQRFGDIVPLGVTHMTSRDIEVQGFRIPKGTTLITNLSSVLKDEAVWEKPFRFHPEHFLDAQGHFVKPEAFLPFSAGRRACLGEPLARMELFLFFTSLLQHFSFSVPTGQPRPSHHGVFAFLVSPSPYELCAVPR

K562 [11] = test: Induction of apoptosis in human K562 cells assessed as early apoptotic cells at 5 uM incubated for 24 hrs by annexinV and propidium iodide staining based flow cytometry analysis (reference value: 1.17%); assay type: functional
K562 [12] = test: Induction of cell cycle arrest in human K562 cells assessed as accumulation of cells at S phase at 5 uM measured after 24 hrs by PI staining based flow cytometry analysis (reference value: 24.75%); assay type: functional
K562 [13] = test: Induction of cell cycle arrest in human K562 cells assessed as accumulation of cells at SubG1 phase at 2.5 uM measured after 24 hrs by PI staining based flow cytometry analysis (reference value: 2.21%); assay type: functional
K562 [14] = test: Induction of cell cycle arrest in human K562 cells assessed as accumulation of cells at SubG1 phase at 5 uM measured after 24 hrs by PI staining based flow cytometry analysis (reference value: 2.21%); assay type: functional
K562 [15] = test: Induction of apoptosis in human K562 cells assessed as late apoptotic cells at 2.5 uM incubated for 24 hrs by annexinV and propidium iodide staining based flow cytometry analysis (reference value: 0.82%); assay type: functional
[16] = target: T1, Mitogen-activated protein kinase 8; test: Inhibition of JNK1 (unknown origin) expressed in HEK293 cells assessed as target engagement incubated for 1 hr by NanoBRET assay; assay type: cell-based
K562 [17] = test: Induction of cell cycle arrest in human K562 cells assessed as accumulation of cells at G0/G1 phase at 1.25 uM measured after 24 hrs by PI staining based flow cytometry analysis (reference value: 46.72%); assay type: functional
K562 [18] = test: Induction of cell cycle arrest in human K562 cells assessed as accumulation of cells at G2/M phase at 1.25 uM measured after 24 hrs by PI staining based flow cytometry analysis (reference value: 25.62%); assay type: functional
K562 [19] = test: Induction of cell cycle arrest in human K562 cells assessed as accumulation of cells at G0/G1 phase at 2.5 uM measured after 24 hrs by PI staining based flow cytometry analysis (reference value: 46.72%); assay type: functional
K562 [20] = test: Induction of cell cycle arrest in human K562 cells assessed as accumulation of cells at SubG1 phase at 1.25 uM measured after 24 hrs by PI staining based flow cytometry analysis (reference value: 2.21%); assay type: functional
K562 [21] = test: Induction of apoptosis in human K562 cells assessed as early apoptotic cells at 2.5 uM incubated for 24 hrs by annexinV and propidium iodide staining based flow cytometry analysis (reference value: 1.17%); assay type: functional
K562 [22] = test: Induction of apoptosis in human K562 cells assessed as early apoptotic cells at 1.25 uM incubated for 24 hrs by annexinV and propidium iodide staining based flow cytometry analysis (reference value: 1.17%); assay type: functional
K562 [23] = test: Induction of apoptosis in human K562 cells assessed as late apoptotic cells at 1.25 uM incubated for 24 hrs by annexinV and propidium iodide staining based flow cytometry analysis (reference value: 0.82%); assay type: functional
K562 [24] = test: Induction of cell cycle arrest in human K562 cells assessed as accumulation of cells at G0/G1 phase at 5 uM measured after 24 hrs by PI staining based flow cytometry analysis (reference value: 46.72%); assay type: functional
K562 [25] = test: Induction of apoptosis in human K562 cells assessed as late apoptotic cells at 5 uM incubated for 24 hrs by annexinV and propidium iodide staining based flow cytometry analysis (reference value: 0.82%); assay type: functional
K562 [26] = test: Induction of cell cycle arrest in human K562 cells assessed as accumulation of cells at S phase at 2.5 uM measured after 24 hrs by PI staining based flow cytometry analysis (reference value: 24.75%); assay type: functional
K562 [27] = test: Induction of cell cycle arrest in human K562 cells assessed as accumulation of cells at G2/M phase at 5 uM measured after 24 hrs by PI staining based flow cytometry analysis (reference value: 25.62%); assay type: functional

T1 sequence (P45983 whole entry): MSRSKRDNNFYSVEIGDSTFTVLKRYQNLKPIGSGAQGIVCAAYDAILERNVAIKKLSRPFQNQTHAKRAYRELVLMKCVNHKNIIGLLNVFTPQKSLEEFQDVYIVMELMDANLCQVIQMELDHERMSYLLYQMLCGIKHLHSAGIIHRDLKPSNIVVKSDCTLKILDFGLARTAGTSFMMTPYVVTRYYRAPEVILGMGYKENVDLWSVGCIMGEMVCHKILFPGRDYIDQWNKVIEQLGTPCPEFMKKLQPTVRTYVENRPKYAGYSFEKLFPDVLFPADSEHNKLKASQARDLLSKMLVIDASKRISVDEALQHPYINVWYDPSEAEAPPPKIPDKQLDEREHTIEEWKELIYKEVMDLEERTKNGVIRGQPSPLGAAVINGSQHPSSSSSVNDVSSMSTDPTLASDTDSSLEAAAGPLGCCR

Compound: CC(C)(C)n1cc(-c2ccnc(NCCNS(=O)(=O)c3ccc(Cl)cc3)c2)c(-c2cccc(O)c2)n1
inhibition [1]: 78.7%

Compound: CC(C)(C)n1cc(-c2ccnc(NCCNS(=O)(=O)c3ccc(Br)cc3)c2)c(-c2cccc(O)c2)n1
inhibition [1]: 74%

Compound: COc1cccc(-c2nn(C(C)(C)C)cc2-c2ccnc(NCCNS(=O)(=O)c3ccccc3)c2)c1
inhibition [1]: 3.74%

Compound: CC(C)(C)n1cc(-c2ccnc(NCCCNS(=O)(=O)c3cccc(F)c3)c2)c(-c2cccc(O)c2)n1
inhibition [2]: 98.2%
inhibition [3]: 98.5%
IC50 [4]: 6.81 nM
inhibition [1]: 98.4%

Compound: COc1ccc(S(=O)(=O)NCCNc2cc(-c3cn(C(C)(C)C)nc3-c3cccc(O)c3)ccn2)cc1
inhibition [2]: 96.2%
inhibition [3]: 94.4%
IC50 [4]: 55.8 nM
inhibition [1]: 90.6%

Compound: CC(C)(C)n1cc(-c2ccnc(NCCNS(=O)(=O)c3ccc(F)cc3)c2)c(-c2cccc(O)c2)n1
inhibition [1]: 87.2%

Compound: Cc1ccc(S(=O)(=O)NCCCNc2cc(-c3cn(C(C)(C)C)nc3-c3cccc(O)c3)ccn2)cc1
inhibition [2]: 98.2%
inhibition [3]: 98.8%
IC50 [4]: 15.1 nM
inhibition [1]: 97%

Compound: CCNC1CCNC1 (centres undefined)
IC50 [7]: 12.8 nM

Compound: CC(C)(C)n1cc(-c2ccnc(NCCNS(=O)(=O)c3cccc(F)c3)c2)c(-c2cccc(O)c2)n1
inhibition [1]: 86.4%

Compound: COc1cccc(-c2nn(C(C)(C)C)cc2-c2ccnc(NCCCNS(=O)(=O)c3cccc4ccccc34)c2)c1
inhibition [1]: 21.3%

Compound: COc1ccc(S(=O)(=O)NCCNc2cc(-c3cn(C(C)(C)C)nc3-c3cccc(OC)c3)ccn2)cc1
inhibition [1]: 9.82%

Compound: CC(C)(C)n1cc(-c2ccnc(NCCNS(=O)(=O)c3cccc4ccccc34)c2)c(-c2cccc(O)c2)n1
inhibition [1]: 63.7%

Compound: CC(C)(C)n1cc(-c2ccnc(NCCNS(=O)(=O)c3ccc(C(F)(F)F)cc3)c2)c(-c2cccc(O)c2)n1
inhibition [1]: 66.6%

Compound: Cc1ccc(S(=O)(=O)NCCNc2cc(-c3cn(C(C)(C)C)nc3-c3cccc(O)c3)ccn2)cc1
inhibition [1]: 85.8%

Compound: CC(C)(C)n1cc(-c2ccnc(NCCCNS(=O)(=O)c3ccccc3)c2)c(-c2cccc(O)c2)n1
inhibition [2]: 99.1%
IC50 [5]: 23.1 nM
inhibition [3]: 98.5%
IC50 [6]: 20.2 nM
IC50 [4]: 3.75 nM
inhibition [1]: 99.4%

Compound: CC(C)(C)n1cc(-c2ccnc(NCCNS(=O)(=O)c3ccccc3)c2)c(-c2cccc(O)c2)n1
inhibition [1]: 81.8%

Further lines, with some results ahead:

inhibition [1]: 0.99%
Compound: COc1cccc(-c2nn(C(C)(C)C)cc2-c2ccnc(NCCNS(=O)(=O)c3ccc(Cl)cc3)c2)c1

inhibition [1]: 4.68%
Compound: COc1cccc(-c2nn(C(C)(C)C)cc2-c2ccnc(NCCNS(=O)(=O)c3ccc(C)cc3)c2)c1

inhibition [1]: 3.91%
Compound: COc1cccc(-c2nn(C(C)(C)C)cc2-c2ccnc(NCCNS(=O)(=O)c3ccc(F)cc3)c2)c1

inhibition [1]: 41.4%
Compound: COc1cccc(-c2nn(C(C)(C)C)cc2-c2ccnc(NCCCNS(=O)(=O)c3ccc(F)cc3)c2)c1

inhibition [3]: 57.7%
inhibition [1]: 73.7%
Compound: COc1cccc(-c2nn(C(C)(C)C)cc2-c2ccnc(NCCCNS(=O)(=O)c3ccc(Br)cc3)c2)c1

inhibition [2]: 98.5%
IC50 [5]: 19.8 nM
inhibition [3]: 98.9%
IC50 [6]: 10.1 nM
IC50 [4]: 3.5 nM
inhibition [1]: 96.8%
Compound: CC(C)(C)n1cc(-c2ccnc(NCCCNS(=O)(=O)c3ccc(F)cc3)c2)c(-c2cccc(O)c2)n1

inhibition [1]: -6.18%
Compound: COc1cccc(-c2nn(C(C)(C)C)cc2-c2ccnc(NCCNS(=O)(=O)c3ccc(Br)cc3)c2)c1

inhibition [1]: 37.8%
Compound: COc1cccc(-c2nn(C(C)(C)C)cc2-c2ccnc(NCCCNS(=O)(=O)c3ccc(C)cc3)c2)c1

inhibition [1]: 29.9%
Compound: COc1cccc(-c2nn(C(C)(C)C)cc2-c2ccnc(NCCCNS(=O)(=O)c3cccc(F)c3)c2)c1

inhibition [1]: 38.8%
Compound: COc1cccc(-c2nn(C(C)(C)C)cc2-c2ccnc(NCCCNS(=O)(=O)c3ccccc3)c2)c1

inhibition [1]: 13.2%
Compound: COc1cccc(-c2nn(C(C)(C)C)cc2-c2ccnc(NCCCNS(=O)(=O)c3ccc(C(F)(F)F)cc3)c2)c1

inhibition [1]: 49.2%
Compound: COc1ccc(S(=O)(=O)NCCCNc2cc(-c3cn(C(C)(C)C)nc3-c3cccc(OC)c3)ccn2)cc1

inhibition [2]: 98%
IC50 (Cytochrome P450 3A4): 383 nM
IC50 [5]: 12.7 nM
IC50 (Cytochrome P450 2D6): 26.7 nM
inhibition [3]: 98.5%
IC50 [16]: 2810 nM
IC50 [6]: 10.5 nM
IC50 [4]: 1.81 nM
inhibition [1]: 99.6%
Compound: COc1ccc(S(=O)(=O)NCCCNc2cc(-c3cn(C(C)(C)C)nc3-c3cccc(O)c3)ccn2)cc1
Activity (K562 [8]): Active
Activity (K562 [9]): 62.99%
Activity (K562 [10]): 32.54%
Activity (K562 [11]): 2.14%
Activity (K562 [12]): 0.34%
Activity (K562 [13]): 0.34%
Activity (K562 [14]): 0.09%
Activity (K562 [15]): 0.73%
Activity (K562 [17]): 19.83%
Activity (K562 [18]): 45.33%
Activity (K562 [19]): 6.24%
Activity (K562 [20]): 1.34%
Activity (K562 [21]): 1.94%
Activity (K562 [22]): 1.89%
Activity (K562 [23]): 0.52%
Activity (K562 [24]): 0.17%
Activity (K562 [25]): 0.59%
Activity (K562 [26]): 29.83%
Activity (K562 [27]): 98.97%
IC50 [7]: 4820 nM

inhibition [3]: 68.2%
inhibition [1]: 79.6%
Compound: COc1cccc(-c2nn(C(C)(C)C)cc2-c2ccnc(NCCCNS(=O)(=O)c3ccc(Cl)cc3)c2)c1
